Tests used:
Hs578T cells = test: SMS assay in Hs578T cells; type: cell-based, human; conditions: versus vehicle and PMA (5 nM), FIG. 2A, 2B, 2D, 2E
Description: The SMS assay was developed to assess the transfer of cell dye (for example the acetoxymethyl [AM]-based Calcein AM), between cancer cells. The SMS assay can be applied to any cell lines forming tumour networks such as tumour microtubes (TM) or tunneling nanotubes (TNT), which enable the transfer of molecules across cells. The SMS assay can be used to assess networking capabilities of any cancer cell lines including HepG2 hepatocellular carcinoma cells, Hs578T cell line for human breast cancer, and U373 cell line for human glioblastoma.
The SMS assay is illustrated in FIG. 1. For the SMS assay, two sets of cells are stained with the cell dye of choice and a customary cell tracker dye (for example cell tracker blue) using established staining techniques (steps 1 and 2). Each set of cells are then co-incubated with the compound of interest to assess its capabilities to modulate the cells small molecule sharing characteristics (step 3). Then the two sets of cells are combined on a plate, for example at a ratio of 1:1, and cultured in the presence of the compound of interest (Step 4).
Finally, live cells are evaluated for viability and analyzed by flow cytometry for the uptake of cell dye in the […] cells (Step 5). The comparison of cell tracker uptake against positive and negative control enables the assessment of the compound's ability to modulate the tumour networks including those formed by TM and TNTs
The SMS assay has been applied to assess the modulation of network sharing capabilities of Protein Kinase C Modulators (PKCm) at various concentrations in the Hs578 cell line for human breast cancer, U373 cell line of human glioblastoma, and HepG2 hepatocellular carcinoma cells. PBS vehicle was used as negative control and the PKCm PHORBOL 12-MYRISTATE 13-ACETATE (PMA) at a concentration of 5 nM was used as the positive control.
FIG. 2A and FIG. 2B show the percentage of cell tracker cells that were accepting the cell dye transfer from separately stained donor cells according to the SMS assay of Example. The percentage of acceptor cells detected is shown in comparison to vehicle (upper horizontal line) and PMA at 5-10 nM concentration (lower horizontal line). Active PKCm in the SMS assay (FIG. 2A) show a decrease in acceptor cells relative to vehicle at certain concentration. […] The upper limit of the tested concentrations was determined as the maximal non-cytotoxic dose.

[1] = system: patient-derived glioblastoma cells from the Glio10535 model; test: Example 5: subcutaneous Glio10535 glioblastoma, TPPB with temozolomide, relative tumour volume; type: in vivo, NMRI nude mice
Experimental: NMRI nude mice were subcutaneously implanted with patient-derived glioblastoma cells from the Glio10535 model (Orthmann et al.) on day 0.
Animals were stratified into the treatment groups on day 6 after tumour implantation to achieve similar average tumour volumes per group. Minimal tumour sizes were 44 mm^3 and maximal tumour sizes were 247 mm^3. Vehicle animals (n=9) were treated with a mix of DMSO, Tween20 and PBS. Each 5 animals were orally dosed with temozolomide chemotherapy at 25 mg/kg (TMZ 25) and at 50 mg/kg (TMZ 50) on consecutive days per week. Each week represents one chemotherapy cycle of 5 treatment days and 2 off-treatment days. TPPB was dosed intraperitoneally in combination with 25 mg/kg oral temozolomide either continuously at 0.2 mg/kg (n=10) or intermittently (n=10) at 0.1, 0.4, and 0.7 mg/kg starting with the last dose of every TMZ 25 cycle and ending the day before the next treatment cycle. Before the start of chemotherapy, TPPB was titrated to its target dose.

[2] = system: human patient-derived S24 glioblastoma cells; test: Example 6: orthotopic S24 glioblastoma, TPPB followed by radiotherapy, intravital microscopy; type: in vivo, NMRI mice
Experimental: Orthotopic brain tumours were induced in NMRI mice using human patient-derived S24 glioblastoma cells exactly as described in Example 4. Once significant tumours were established in vivo (approximately 35 days after implantation), as shown by intravital microscopy exactly as described in Example 4, mice received 4 intraperitoneal injections on day -1, day 6 and day 13 and day 20, with Control mice receiving vehicle only and Treated mice receiving TPPB at 200 μg/kg. All mice then received radiotherapy on days 0, 1 and 2 exactly as described in Example 4, except that the radiation dose was 6 Gy as opposed to 7 Gy on each occasion (18 Gy total radiation dose as opposed to 21 Gy total radiation dose). The impact of treatment on the tumour was then monitored by intravital microscopy at intervals after the initiation of radiotherapy on day 0.

PKCα = PKCα (Homo sapiens, UniProt P17252); set-up: key: +—activation; ++—strong activation; conditions: cPKCs, gene PRKCA; cited from earlier work
PKCδ = PKCδ (Homo sapiens, UniProt Q05655); set-up: key: +—activation; ++—strong activation; conditions: nPKCs, gene PRKCD; cited from earlier work
PKCε = biological target: T1, PKCε (Homo sapiens, UniProt Q02156); set-up: key: +—activation; ++—strong activation; conditions: nPKCs, gene PRKCE; cited from earlier work
T1 sequence (Q02156 1-737): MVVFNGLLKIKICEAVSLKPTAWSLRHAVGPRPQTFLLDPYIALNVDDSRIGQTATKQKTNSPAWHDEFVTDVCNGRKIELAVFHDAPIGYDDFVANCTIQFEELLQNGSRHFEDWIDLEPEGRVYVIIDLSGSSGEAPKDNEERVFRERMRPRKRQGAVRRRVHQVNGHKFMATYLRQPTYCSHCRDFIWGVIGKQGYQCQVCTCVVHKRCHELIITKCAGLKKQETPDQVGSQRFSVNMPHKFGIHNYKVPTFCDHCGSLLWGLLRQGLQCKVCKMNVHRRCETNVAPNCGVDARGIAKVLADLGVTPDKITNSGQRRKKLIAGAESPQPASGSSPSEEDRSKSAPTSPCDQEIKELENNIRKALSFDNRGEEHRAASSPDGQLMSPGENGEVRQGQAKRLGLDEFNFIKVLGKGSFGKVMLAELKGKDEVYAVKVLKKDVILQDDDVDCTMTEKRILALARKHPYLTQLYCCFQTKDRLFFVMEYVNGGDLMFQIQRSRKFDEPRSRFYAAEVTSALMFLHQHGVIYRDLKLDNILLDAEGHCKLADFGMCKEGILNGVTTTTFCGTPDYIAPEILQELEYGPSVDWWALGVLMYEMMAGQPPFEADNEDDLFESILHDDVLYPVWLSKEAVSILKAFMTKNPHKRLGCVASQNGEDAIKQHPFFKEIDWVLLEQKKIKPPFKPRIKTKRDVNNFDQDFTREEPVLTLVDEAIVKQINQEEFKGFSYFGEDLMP

[3] = intermittent TPPB 0.7 2× per week i.p. + TMZ 25 mg/kg oral, by 38
[4] = TPPB 200 μg/kg i.p. followed by radiotherapy, all mice

PKCδ, sequence (Q05655 whole entry): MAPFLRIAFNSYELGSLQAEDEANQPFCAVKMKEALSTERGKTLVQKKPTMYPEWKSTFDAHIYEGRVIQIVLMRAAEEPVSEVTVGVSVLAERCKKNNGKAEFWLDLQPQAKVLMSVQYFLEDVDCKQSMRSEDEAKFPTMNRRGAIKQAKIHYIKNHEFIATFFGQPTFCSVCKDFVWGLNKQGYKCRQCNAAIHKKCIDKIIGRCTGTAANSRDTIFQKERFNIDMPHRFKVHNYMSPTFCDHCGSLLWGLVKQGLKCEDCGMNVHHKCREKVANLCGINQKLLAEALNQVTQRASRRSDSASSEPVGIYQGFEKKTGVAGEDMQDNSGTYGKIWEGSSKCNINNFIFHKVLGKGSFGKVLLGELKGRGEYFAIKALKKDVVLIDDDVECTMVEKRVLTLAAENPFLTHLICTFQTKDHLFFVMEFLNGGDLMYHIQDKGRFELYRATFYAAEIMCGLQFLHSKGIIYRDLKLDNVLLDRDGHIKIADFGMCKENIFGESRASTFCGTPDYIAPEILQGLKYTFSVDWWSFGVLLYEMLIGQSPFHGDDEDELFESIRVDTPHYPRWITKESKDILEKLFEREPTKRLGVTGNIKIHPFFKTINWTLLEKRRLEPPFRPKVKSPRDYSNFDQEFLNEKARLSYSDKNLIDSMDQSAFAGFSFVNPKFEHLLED

CC(C)[C@H]1C(=O)N[C@H](CO)Cc2cc(NC(=O)/C=C/C=C/c3ccc(C(F)(F)F)cc3)ccc2N1C [TPPB, (2E,4E)-N-[(2S,5S)-1,2,3,4,5,6-Hexahydro-5-(hydroxymethyl)-1-methyl-2-(1-methylethyl)-3-oxo-1,4-benzodiazocin-8-yl]-5-[4-(trifluoromethyl)phenyl]-2,4-pentadienamide]
cell dye-sharing in the SMS assay (percentage of acceptor cells) (Hs578T cells): inhibition of cell dye-sharing | effect over control ([1]; continuous dosing with TPPB (0.2 mg/kg QD i.p. + TMZ 25)): no effect over control | anti-tumour effect (relative tumour volume) compared with TMZ 25 monotherapy [1, 3]: additive to the effect of temozolomide 25 mg/kg monotherapy | anti-tumour effect (relative tumour volume) compared with continuous TPPB 0.2 QD + TMZ 25 [1, 3]: superior to continuous treatment with TPPB | tumour growth ([1]; intermittent dosing with TPPB (+ TMZ 25)): tumour growth inhibition | tumour cell morphology ([2]; TPPB 200 μg/kg i.p. + radiotherapy, from day 35 after initiation of radiotherapy): marked change in morphology | outcome of orthotopic solid brain tumour ([2]; TPPB 200 μg/kg i.p. day -1, 6, 13, 20, radiotherapy 6 Gy days 0, 1, 2, by day 91): complete cure | tumour cells in field of view ([2]; TPPB 200 μg/kg i.p. day -1, 6, 13, 20, radiotherapy 6 Gy days 0, 1, 2, day 91): no detectable tumour cells | behavioural or clinical signs associated with the treatment [2, 4]: no behavioural or clinical signs | tolerability [2, 4]: well tolerated | activation of PKCα (PKCα): ++ | activation of PKCδ (PKCδ): + | activation of PKCε (PKCε): +
